We go through 17 compounds from patent US9290476B2, “Methylene linked quinolinyl modulators of RORγt” (Janssen Pharmaceutica NV, priority 2012, dated 2016).

The Kd is the equilibrium constant for the complex coming apart. As usually defined, the IC50 is the concentration that inhibits the measured activity by half. Usually inhibition stands for the relative decrease from the control value, in per cent.

The target of test [1] is human RORγt ligand binding domain (RORγt LBD) (Homo sapiens (Human), UniProt P51449). The experiment in a line: RORγt ThermoFluor assay (thermal shift binding affinity). The conditions noted are these: estimated from thermal shift. The procedure, abridged:
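Thermal shift used 0.065 mg/mL RORγt LBD with 60 μM 1,8-ANS in 100 mM Hepes pH 7.0, 10 mM NaCl, 2.5 mM GSH and 0.002% Tween-20, heated at 1 °C/min. Fluorescence was excited at 380–400 nm and emission read at 500 nm.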

For the next test, the target named is human RORγt LBD (Homo sapiens (Human), UniProt P51449). The experiment in a line: RORγt reporter assay (GAL4-RORγt LBD luciferase in HEK293T cells). The test is classed as cell-based. The conditions noted are these: for IC50 / RORγt reporter Assay, % inhibition @ 6 μM: HEK293T cells; for IC50: 24 hours compound treatment; for inhibition at 6 µM: HEK-293T, read-out: RORγt reporter Assay, % inhibition @ 6 μM, HEK293T cells, 6 μM. The method in brief: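 HEK293T cells transiently co-transfected with GAL4-DBD–wild-type human RORγt LBD (pBIND) and GAL4-responsive firefly luciferase reporter (pGL4.31); renilla luciferase from pBIND normalises transfection/viability. Cells in phenol-red-free DMEM, 5% lipid-reduced FCS, treated with compound 24 h. Firefly/renilla ratio plotted against compound concentration.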
Chain of human RORγt LBD (P51449 258-518): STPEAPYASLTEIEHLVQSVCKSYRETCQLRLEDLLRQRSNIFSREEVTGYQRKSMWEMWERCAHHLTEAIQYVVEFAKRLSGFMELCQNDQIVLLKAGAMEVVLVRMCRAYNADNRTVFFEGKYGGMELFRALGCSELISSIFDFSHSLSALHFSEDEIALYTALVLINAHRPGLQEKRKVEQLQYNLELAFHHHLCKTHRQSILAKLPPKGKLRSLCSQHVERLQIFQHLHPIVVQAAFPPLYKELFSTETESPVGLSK
For orientation: In a reporter assay the amount or activity of a reporter protein is the signal.

Test [2] deals with IL-17 production by CD4 T cells. The experiment in a line: Human Th17 assay (IL-17 production by CD4 T cells under Th17 differentiation). Type of test: cell-based. The settings on record: human CD4+ T cells, IL-17 after 3 days, read-out: Human Th17 Assay, IC50 μM. The method in brief: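 Healthy-donor peripheral CD4+ T cells (1.5×10^5/well) preincubated 1 h with titrated compound (0.2% DMSO), then differentiated with anti-CD3/CD28 beads, anti-IL4, anti-IFNγ, IL1β, IL23, IL6, TGFβ and IL2 for 3 days at 37 °C. Supernatant IL-17 quantified by MSD electrochemiluminescence against a standard curve; IC50 fitted.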

Counter-ions that a name gives are not always drawn. Like-named read-outs stand apart in the source and are kept apart here.

Chain of human RORγt ligand binding domain (RORγt LBD) (P51449 other isoform, or with tags, fused parts or gaps): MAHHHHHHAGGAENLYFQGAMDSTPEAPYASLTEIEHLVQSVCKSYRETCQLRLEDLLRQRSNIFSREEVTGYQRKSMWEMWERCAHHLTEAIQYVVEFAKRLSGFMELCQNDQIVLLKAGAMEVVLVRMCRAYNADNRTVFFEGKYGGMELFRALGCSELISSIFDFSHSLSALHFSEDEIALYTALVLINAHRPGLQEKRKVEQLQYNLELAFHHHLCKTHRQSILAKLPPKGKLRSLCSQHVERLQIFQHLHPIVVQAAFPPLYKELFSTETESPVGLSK

As to `COc1nc2ccc(C(O)(c3cnnn3C)C3CN(C(C)=O)C3)cc2c(Cl)c1Cc1ccc(C(F)(F)F)cc1` (single isomer, unassigned) [Example 97B, 1-(3-((4-Chloro-2-methoxy-3-(4-(trifluoromethyl)benzyl)quinolin-6-yl)(hydroxy)(1-methyl-1H-1,2,3-triazol-5-yl)methyl)azetidin-1-yl)ethanone], the Kd in test [1] is 1.4 nM. Also, on human RORγt LBD, the IC50 amounted to 0.0059 µM and the inhibition at 6 µM came to 98%. In addition, the IC50 in test [2] was 0.0034 µM.
The like results for `Cc1cc(C(O)(c2ccc(C#N)cc2)c2cncn2C)cc2c(C#N)c(Cc3ccc(-n4cccn4)cc3)c(C#N)nc12` (single isomer, unassigned) [Example 66B, 3-(4-(1H-pyrazol-1-yl)benzyl)-6-((4-cyanophenyl)(hydroxy)(1-methyl-1H-imidazol-5-yl)methyl)-8-methylquinoline-2,4-dicarbonitrile] were, in that order, 270 nM, 0.42 µM, 95% and 1.1 µM.
On to `COc1nc2ccc(C(O)(c3ccc(C#N)cc3)c3cncn3C)cc2c(C#N)c1Cc1ccc(C(F)(F)F)cc1` (single isomer, unassigned) [Example 96C, 6-((4-cyanophenyl)(hydroxy)(1-methyl-1H-imidazol-5-yl)methyl)-2-methoxy-3-(4-(trifluoromethyl)benzyl)quinoline-4-carbonitrile], for which the dissociation constant Kd in test [1] is 2.2 nM. Moreover, at human RORγt LBD, the “RORγt reporter Assay, % inhibition @ 6 μM” value was 97% and the IC50 came out at 0.018 µM. The IC50 in test [2] is 0.0045 µM.
As for `CCc1nc2ccc(C(O)(c3cnnn3C)C3CN(C(C)=O)C3)cc2c(Cl)c1Cc1ccc(C(F)(F)F)cc1` (single isomer, unassigned) [Example 90B, 1-(3-((4-Chloro-2-ethyl-3-(4-(trifluoromethyl)benzyl)quinolin-6-yl)(hydroxy)(1-methyl-1H-1,2,3-triazol-5-yl)methyl)azetidin-1-yl)ethanone], in test [1], the equilibrium dissociation constant (Kd) was 0.56 nM. At human RORγt LBD, the IC50 is roughly 0.004 µM and the inhibition at 6 µM came to 98%. For the same compound, in test [2] (Homo sapiens, CD4+ T, 72 h), the IC50 worked out at 0.012 µM.
`COc1nc2ccc(C(O)(c3cnnn3C)C3CN(C(C)=O)C3)cc2c(Cl)c1Cc1ccc(C(F)(F)F)cc1` (racemic) [Example 97A, 1-(3-((4-Chloro-2-methoxy-3-(4-(trifluoromethyl)benzyl)quinolin-6-yl)(hydroxy)(1-methyl-1H-1,2,3-triazol-5-yl)methyl)azetidin-1-yl)ethanone]: the Kd in test [1] was 1.4 nM. In addition, the IC50 against human RORγt LBD was found to be 0.0042 µM; in test [2] (Homo sapiens, CD4+ T, 72 h), 0.0014 µM. The inhibition at 6 µM on human RORγt LBD was 100%.
Consider `COc1nc2ccc(C(O)(c3ccc(C(F)(F)F)nc3)c3cncn3C)cc2c(C#N)c1Cc1ccc(-n2cccn2)cc1` (single isomer, unassigned) [Example 73B, 3-(4-(1H-Pyrazol-1-yl)benzyl)-6-(hydroxy(1-methyl-1H-imidazol-5-yl)(6-(trifluoromethyl)pyridin-3-yl)methyl)-2-methoxyquinoline-4-carbonitrile], for which the dissociation constant Kd in test [1] was 4.5 nM. Further, on human RORγt LBD, it took 0.046 µM to reach half-maximal inhibition (IC50) and the inhibition at 6 µM is 97%. In addition, the IC50 in test [2] worked out at 0.02 µM.
On to `COc1nc2ccc(C(O)(c3ccccc3)C3CCN(C(C)=O)CC3)cc2c(Cl)c1Cc1ccc(-n2cccn2)cc1` (single isomer, unassigned) [Example 83C, 1-(4-((3-(4-(1H-Pyrazol-1-yl)benzyl)-4-chloro-2-methoxyquinolin-6-yl)(hydroxy)(phenyl)methyl)piperidin-1-yl)ethanone], for which the Kd in test [1] is 77 nM. For the same compound, on human RORγt LBD, the “RORγt reporter Assay, % inhibition @ 6 μM” value worked out at 103% and half-maximal inhibition (IC50) was put at 0.14 µM. In test [2], the IC50 turned out to be 0.12 µM.
`Cc1cc(C(O)(c2ccc(Cl)cc2)c2cncn2C)cc2c(Cl)c(Cc3ccc(-n4cccn4)cc3)c(Cl)nc12` (centres unmarked) [Example 85, (3-(4-(1H-Pyrazol-1-yl)benzyl)-2,4-dichloro-8-methylquinolin-6-yl)(4-chlorophenyl)(1-methyl-1H-imidazol-5-yl)methanol]: the Kd in test [1] was 85 nM. On human RORγt LBD, the IC50 stood at 0.29 µM and the inhibition at 6 µM is 97%. For the same compound, the IC50 in test [2] (Homo sapiens, CD4+ T, 72 h) worked out at 0.3 µM.
For the compound `Cc1cc(C(O)(c2ccc(C#N)cc2)c2cncn2C)cc2c(C#N)c(Cc3ccc(-n4cccn4)cc3)c(C#N)nc12` (single isomer, unassigned) [Example 66C, 3-(4-(1H-pyrazol-1-yl)benzyl)-6-((4-cyanophenyl)(hydroxy)(1-methyl-1H-imidazol-5-yl)methyl)-8-methylquinoline-2,4-dicarbonitrile], in test [1], the Kd was 7.9 nM. Also, at human RORγt LBD, the “RORγt reporter Assay, % inhibition @ 6 μM” value was found to be 101% and half-maximal inhibition (IC50) required 0.029 µM. Also, in test [2], the IC50 was found to be 0.04 µM.
In the case of `CCc1nc2ccc(C(O)(c3cnnn3C)C3CN(C(C)=O)C3)cc2c(Cl)c1Cc1ccc(C(F)(F)F)cc1` (single isomer, unassigned) [Example 90C, 1-(3-((4-Chloro-2-ethyl-3-(4-(trifluoromethyl)benzyl)quinolin-6-yl)(hydroxy)(1-methyl-1H-1,2,3-triazol-5-yl)methyl)azetidin-1-yl)ethanone], the Kd in test [1] was 0.32 nM. Besides, on human RORγt LBD, the “RORγt reporter Assay, % inhibition @ 6 μM” value is 98% and inhibition was half-maximal at 0.0054 µM (IC50). The IC50 in test [2] was found to be 0.0061 µM.
As for `Cc1ccc(C(O)(c2ccc3nc(C#N)c(Cc4ccc(C(F)(F)F)cc4)c(C#N)c3c2)c2cnnn2C)c(C)n1` (single isomer, unassigned) [Example 88C, 6-((2,6-Dimethylpyridin-3-yl)(hydroxy)(1-methyl-1H-1,2,3-triazol-5-yl)methyl)-3-(4-(trifluoromethyl)benzyl)quinoline-2,4-dicarbonitrile], in test [1], the Kd is 0.04 nM. For the same compound, on human RORγt LBD, the “RORγt reporter Assay, % inhibition @ 6 μM” value turned out to be 95% and inhibition was half-maximal at 0.0088 µM (IC50). Moreover, the IC50 in test [2] (Homo sapiens, CD4+ T, 72 h) amounted to 0.0028 µM.
On to `COc1nc2c(C)cc(C(O)(c3ccc(C(F)(F)F)nc3)c3cncn3C)cc2c(Cl)c1Cc1ccc(-n2cccn2)cc1` (single isomer, unassigned) [Example 29C, (3-(4-(1H-pyrazol-1-yl)benzyl)-4-chloro-2-methoxy-8-methylquinolin-6-yl)(1-methyl-1H-imidazol-5-yl)(6-(trifluoromethyl)pyridin-3-yl)methanol], for which, in test [1], the dissociation constant Kd was 4.9 nM. Also, on human RORγt LBD, the “RORγt reporter Assay, % inhibition @ 6 μM” value stood at 97% and half-maximal inhibition (IC50) was put at 0.081 µM. Further, the half-inhibitory concentration (IC50) in test [2] amounted to 0.09 µM.
The corresponding values for `COc1ccc(C(O)(c2ccc3nc(OC)c(Cc4ccc(-n5cccn5)cc4)c(Cl)c3c2)c2cncs2)cn1` (single isomer, unassigned) [Example 20C, (3-(4-(1H-pyrazol-1-yl)benzyl)-4-chloro-2-methoxyquinolin-6-yl)(6-methoxypyridin-3-yl)(thiazol-5-yl)methanol] are 5.3 nM, 102%, 0.06 µM and 0.069 µM.
Consider `COc1ccc(C(O)(c2cccnc2)c2ccc3nc(Cl)c(Cc4ccc(-n5cccn5)cc4)c(Cl)c3c2)cc1` (centres unmarked) [Example 47, (3-(4-(1H-Pyrazol-1-yl)benzyl)-2,4-dichloroquinolin-6-yl)(4-methoxyphenyl)(pyridin-3-yl)methanol], for which the Kd in test [1] was 140 nM. At human RORγt LBD, the IC50 was 0.17 µM and the inhibition at 6 µM worked out at 102%. Moreover, the IC50 in test [2] (Homo sapiens, CD4+ T, 72 h) came out at 0.18 µM.
The like results for `CN(C)c1ccc(C(O)(c2ccc3nc(Cl)c(Cc4ccc(-n5cccn5)cc4)c(Cl)c3c2)c2cncn2C)cc1` (centres unmarked) [Example 25, (3-(4-(1H-Pyrazol-1-yl)benzyl)-2,4-dichloroquinolin-6-yl)(4-(dimethylamino)phenyl)(1-methyl-1H-imidazol-5-yl)methanol.TFA] were, in that order, 440 nM, 0.33 µM, 87% and 0.38 µM.
The corresponding values for `OC(c1cccnc1)(c1ccc2nc(Cl)c(Cc3ccc(Cl)cc3)c(Cl)c2c1)c1cncs1` (centres unmarked) [Example 9, (2,4-Dichloro-3-(4-chlorobenzyl)quinolin-6-yl)(pyridin-3-yl)(thiazol-5-yl)methanol.TFA] are 0.83 nM, 0.0065 µM, 85% and 0.085 µM.
The like results for `Cn1cncc1C(O)(c1ccc(Cl)cc1)c1ccc2nc(Cl)c(Cc3ccccc3)c(Cl)c2c1` (centres unmarked) [Example 1, (3-Benzyl-2,4-dichloroquinolin-6-yl)(4-chlorophenyl)(1-methyl-1H-imidazol-5-yl)methanol] were, in that order, 18 nM, 0.35 µM, 72% and 0.59 µM.
